Experimental findings from BindingDB's records for doi:10.1016/j.bmcl.2017.07.010 (De Montfort University, 2017) are described below.

As a reminder, the EC50 is the concentration at which the effect is half-maximal.

A short description of the data set: Inhibition of human CYP1B1 transfected in HEK293 cells assessed as cisplatin EC50 at 6 times IC50 by MTT assay (Rvb = 65 uM).

As for `COc1ccccc1/C=C/C(=O)c1ccc[nH]1`, the EC50 was determined as 10 µM.

As to `O=C(/C=C/c1ccccc1Cl)c1ccc[nH]1`, the EC50 was found to be 10 µM.
